Measurements from US8669252B2, “Prolylcarboxypeptidase inhibitors” (Merck Sharp & Dohme Corp., priority 2010, dated 2014).

Assays:
human PrCP = human PrCP (Homo sapiens (Human), UniProt P42785); assay: biochemical
Experimental: The assay was performed using a Hamilton Star liquid handling workstation. The assay employed the internally quenched fluorescent substrate (1S)-1-carboxy-5-[(2,4-dinitrophenyl)amino]pentyl N-[(7-methoxy-2-oxo-2H-chromen-4-yl)acetyl]-L-alanyl-L-prolinate prepared in house.
The assay also contained 2% DMSO used to solubilize the substrate and inhibitor. Inhibitors were prepared in 100% DMSO and serial diluted (in 100% DMSO) to generate 11 point titration curves. Either 39 uL of human or mouse PrCP enzyme was added to the wells of the assay plate, followed by a 1 uL addition of the serially diluted inhibitor and mixed three times using a 30 uL mix volume. The reaction was initiated by the addition of 10 uL substrate and mixed three times using a 30 uL mix volume. […] IC50 values were calculated by comparing the resulting rates of reaction of the inhibited and control initial velocities.
The enzymes were diluted in a mixture of 10 mM NaOAc (pH 5.5)/100 mM NaCl buffer containing 25 ug/mL bovine serum albumin that had been warmed to 37° C. in a water bath. The PrCP inhibitor test compounds were plated in 100% DMSO with a highest concentration of 500 uM. There were 12 dilution points for each compound tested including a blank with DMSO only. […]

[1] = in vivo; cited from earlier work
[2] = system: obese, leptin deficient mice; conditions: systemic administration to obese; cited from earlier work
rats = conditions: intracerebroventricular administration to rats; cited from earlier work

human PrCP, sequence (P42785 46-496): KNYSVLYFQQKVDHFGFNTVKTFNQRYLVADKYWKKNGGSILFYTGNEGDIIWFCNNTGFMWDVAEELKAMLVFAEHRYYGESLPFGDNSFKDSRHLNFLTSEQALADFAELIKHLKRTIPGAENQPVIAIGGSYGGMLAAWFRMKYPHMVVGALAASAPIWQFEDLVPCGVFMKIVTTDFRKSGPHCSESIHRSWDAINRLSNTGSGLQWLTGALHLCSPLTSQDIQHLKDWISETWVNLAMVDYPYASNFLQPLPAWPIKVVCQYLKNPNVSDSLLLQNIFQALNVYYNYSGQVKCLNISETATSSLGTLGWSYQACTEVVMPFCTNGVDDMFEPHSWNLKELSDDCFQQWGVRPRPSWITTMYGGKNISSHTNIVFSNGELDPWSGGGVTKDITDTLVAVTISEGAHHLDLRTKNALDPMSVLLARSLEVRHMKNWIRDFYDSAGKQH

Molecule	weight loss, of body weight for drug compared to placebo [1]	other results
O=C(NC(c1ccc(F)cc1)c1ccc(F)cc1)C1CCC(N2CCOCC2)CC1c1ccc(F)cc1 (single isomer, unassigned) [Example 4, N-[bis(4-fluorophenyl)methyl]-2-(4-fluorophenyl)-4-(morpholin-4-yl)cyclohexanecarboxamide]	–	IC50 (human PrCP): 2.1 nM
CCN[C@@H](C)Cc1cccc(C(F)(F)F)c1 [dexfenfluramine]	5%-10%	–
CCCCCCCCCCC[C@@H](C[C@@H]1OC(=O)[C@H]1CCCCCC)OC(=O)[C@H](CC(C)C)NC=O [orlistat]	5%-10%	–
CC(C)(N)Cc1ccccc1 [phentermine]	5%-10%	–
CC(C)CC(N(C)C)C1(c2ccc(Cl)cc2)CCC1 (stereo not shown) [sibutramine]	5%-10%	–
t-butyl carbamate-prolyl prolinal [BPP]	–	overnight food intake [2]: suppression of overnight food intake; overnight food intake (rats): suppression of overnight food intake
